Target: human TRPV4 (Homo sapiens (Human), UniProt Q9HBA0)
Assay: FLIPR assay for hTRPV4 expressed in BHK cells
Type: cell-based
Details: inhibition of Agonist Compound (EC80)-induced calcium signal; BHK/AC9 cells expressing human TRPV4; read-out: IC50
Description: FLIPR Assay for hTRPV4 Expressed in BHK Cells:
TRPV4 channel activation results in an influx of divalent and monovalent cations including calcium. The resulting changes in intracellular calcium were monitored using a calcium specific fluorescent dye Fluo-4 (MDS Analytical Technologies). BHK/AC9 cells transduced with BacMam virus expressing the human TRPV4 gene at a MOI of 78 were plated in a 384 well poly-D lysine coated plate (15,000 cells/well in 50 μL culture medium containing DMEM/F12 with 15 mM HEPES, 10% FBS, 1% Penicillin-Streptomycin and 1% L-glutamine). Cells were incubated for 24 hours at 37° C. and 5% CO2. Culture medium was then aspirated using a Tecan plate-washer and replaced with 20 μL/well of dye loading buffer: HBSS, 500 μM Brilliant Black (MDS Analytical Technologies), and 2 μM Fluo-4 AM. Dye loaded plates were then incubated in the dark at room temperature for 1˜1.5 hours.

Sequence of human TRPV4 (Q9HBA0 whole entry): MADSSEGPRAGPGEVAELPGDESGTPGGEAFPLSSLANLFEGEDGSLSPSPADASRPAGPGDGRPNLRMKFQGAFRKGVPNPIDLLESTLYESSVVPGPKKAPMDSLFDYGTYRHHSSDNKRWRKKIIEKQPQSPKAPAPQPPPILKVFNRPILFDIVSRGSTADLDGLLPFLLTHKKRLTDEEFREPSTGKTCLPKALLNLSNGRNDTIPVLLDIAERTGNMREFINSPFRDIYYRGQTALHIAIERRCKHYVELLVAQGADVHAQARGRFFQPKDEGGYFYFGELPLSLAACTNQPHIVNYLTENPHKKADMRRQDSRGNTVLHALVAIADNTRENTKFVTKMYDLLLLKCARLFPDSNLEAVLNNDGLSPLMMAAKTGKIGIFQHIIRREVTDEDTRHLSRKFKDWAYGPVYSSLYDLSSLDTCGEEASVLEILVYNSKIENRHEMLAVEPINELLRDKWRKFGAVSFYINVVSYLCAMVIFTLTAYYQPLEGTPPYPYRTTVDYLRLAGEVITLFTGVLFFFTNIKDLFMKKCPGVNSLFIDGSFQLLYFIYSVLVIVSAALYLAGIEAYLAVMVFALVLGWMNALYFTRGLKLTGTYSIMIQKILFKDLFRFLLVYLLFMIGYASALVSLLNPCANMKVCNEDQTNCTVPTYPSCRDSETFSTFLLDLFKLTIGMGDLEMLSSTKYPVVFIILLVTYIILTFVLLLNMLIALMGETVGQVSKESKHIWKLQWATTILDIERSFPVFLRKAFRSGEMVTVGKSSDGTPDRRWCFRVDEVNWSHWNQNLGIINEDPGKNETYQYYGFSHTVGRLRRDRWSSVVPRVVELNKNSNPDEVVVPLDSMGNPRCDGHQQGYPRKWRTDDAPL

Row | SMILES | IC50 [nM]
1 | N#Cc1ccc(S(=O)(=O)[C@H]2CN(S(=O)(=O)c3ccc(F)cc3C(F)(F)F)C[C@@]2(O)CO)cc1 [Example 29, 4-(((3S,4R)-1-((4-fluoro-2-(trifluoromethyl)phenyl)sulfonyl)-4-hydroxy-4-(hydroxymethyl)pyrrolidin-3-yl)sulfonyl)benzonitrile] | 0.1 to 10
2 | N#Cc1ccc(S(=O)(=O)[C@H]2CN(S(=O)(=O)c3ccc(Br)cc3C(F)(F)F)C[C@@]2(O)CO)cc1 [Example 30, 4-(((3S,4R)-1-((4-bromo-2-(trifluoromethyl)phenyl)sulfonyl)-4-hydroxy-4-(hydroxymethyl)pyrrolidin-3-yl)sulfonyl)benzonitrile] | 0.1 to 10
3 | COc1ccc(S(=O)(=O)N2C[C@H](S(=O)(=O)c3ccc(C#N)cc3)[C@](O)(CO)C2)c(C(F)(F)F)c1 [Example 31, 4-(((3S,4R)-4-hydroxy-4-(hydroxymethyl)-1-((4-methoxy-2-(trifluoromethyl)phenyl)sulfonyl)pyrrolidin-3-yl)sulfonyl)benzonitrile] | 10 to 100
4 | N#Cc1ccc(S(=O)(=O)[C@H]2CN(S(=O)(=O)c3ccc(C(F)(F)F)cc3Br)C[C@@]2(O)CO)cc1 [Example 32, 4-(((3S,4R)-1-((2-bromo-4-(trifluoromethyl)phenyl)sulfonyl)-4-hydroxy-4-(hydroxymethyl)pyrrolidin-3-yl)sulfonyl)benzonitrile] | 10 to 100
5 | N#Cc1ccc(S(=O)(=O)[C@H]2CN(S(=O)(=O)c3ccccc3Br)C[C@@]2(O)CO)cc1 [Example 33, 4-(((3S,4R)-1-((2-bromophenyl)sulfonyl)-4-hydroxy-4-(hydroxymethyl)pyrrolidin-3-yl)sulfonyl)benzonitrile] | 10 to 100
6 | N#Cc1ccc(S(=O)(=O)[C@H]2CN(S(=O)(=O)c3ccc(Br)cc3Cl)C[C@@]2(O)CO)cc1 [Example 34, 4-(((3S,4R)-1-((4-bromo-2-chlorophenyl)sulfonyl)-4-hydroxy-4-(hydroxymethyl)pyrrolidin-3-yl)sulfonyl)benzonitrile] | 0.1 to 10
7 | COc1cc(C#N)ccc1S(=O)(=O)N1C[C@H](S(=O)(=O)c2ccc(Cl)cc2)[C@](O)(CO)C1 [Example 35, 4-(((3R,4S)-4-((4-chlorophenyl)sulfonyl)-3-hydroxy-3-(hydroxymethyl)pyrrolidin-1-yl)sulfonyl)-3-methoxybenzonitrile] | 0.1 to 10
8 | N#Cc1ccc(S(=O)(=O)[C@H]2CN(S(=O)(=O)c3ccc(C(F)(F)F)cc3F)C[C@@]2(O)CO)cc1 [Example 36, 4-(((3S,4R)-1-((2-fluoro-4-(trifluoromethyl)phenyl)sulfonyl)-4-hydroxy-4-(hydroxymethyl)pyrrolidin-3-yl)sulfonyl)benzonitrile] | 10 to 100
9 | O=S(=O)(c1ccc(Cl)cc1)[C@H]1CN(S(=O)(=O)c2ccc(C(F)F)cc2Cl)C[C@@]1(O)CO [Example 37, (3R,4S)-1-((2-chloro-4-(difluoromethyl)phenyl)sulfonyl)-4-((4-chlorophenyl)sulfonyl)-3-(hydroxymethyl)pyrrolidin-3-ol] | 10 to 100
10 | N#Cc1ccc(S(=O)(=O)N2C[C@H](S(=O)(=O)c3ccc(Cl)cc3)[C@](O)(CO)C2)c(Br)c1 [Example 38, 3-bromo-4-(((3R,4S)-4-((4-chlorophenyl)sulfonyl)-3-hydroxy-3-(hydroxymethyl)pyrrolidin-1-yl)sulfonyl)benzonitrile] | 0.1 to 10
11 | N#Cc1ccc(S(=O)(=O)N2C[C@H](S(=O)(=O)c3ccc(C(F)(F)F)nc3)[C@](O)(CO)C2)c(Br)c1 [Example 39, 3-bromo-4-(((3R,4S)-3-hydroxy-3-(hydroxymethyl)-4-((6-(trifluoromethyl)pyridin-3-yl)sulfonyl)pyrrolidin-1-yl)sulfonyl)benzonitrile] | 10 to 100
12 | N#Cc1cc(Cl)ccc1S(=O)(=O)N1C[C@H](S(=O)(=O)c2ccc(C(F)(F)F)nc2)[C@](O)(CO)C1 [Example 40, 5-chloro-2-(((3R,4S)-3-hydroxy-3-(hydroxymethyl)-4-((6-(trifluoromethyl)pyridin-3-yl)sulfonyl)pyrrolidin-1-yl)sulfonyl)benzonitrile] | 10 to 100
13 | N#Cc1ccc(S(=O)(=O)[C@H]2CN(S(=O)(=O)c3ccccc3C(F)(F)F)C[C@@]2(O)CO)cc1 [Example 41, 4-(((3S,4R)-4-hydroxy-4-(hydroxymethyl)-1-((2-(trifluoromethyl)phenyl)sulfonyl)pyrrolidin-3-yl)sulfonyl)benzonitrile] | 10 to 100
14 | N#Cc1ccc(S(=O)(=O)[C@H]2CN(S(=O)(=O)c3ccc(C(F)F)cc3Cl)C[C@@]2(O)CO)cc1 [Example 42, 4-(((3S,4R)-1-((2-chloro-4-(difluoromethyl)phenyl)sulfonyl)-4-hydroxy-4-(hydroxymethyl)pyrrolidin-3-yl)sulfonyl)benzonitrile] | 10 to 100
15 | O=S(=O)(c1ccc(Cl)cc1)[C@H]1CN(S(=O)(=O)c2ccc(CF)cc2Cl)C[C@@]1(O)CO [Example 43, (3R,4S)-1-((2-chloro-4-(fluoromethyl)phenyl)sulfonyl)-4-((4-chlorophenyl)sulfonyl)-3-(hydroxymethyl)pyrrolidin-3-ol] | 10 to 100
16 | N#Cc1ccc(S(=O)(=O)[C@H]2CN(S(=O)(=O)c3ccc(CF)cc3Cl)C[C@@]2(O)CO)cc1 [Example 44, 4-(((3S,4R)-1-((2-chloro-4-(fluoromethyl)phenyl)sulfonyl)-4-hydroxy-4-(hydroxymethyl)pyrrolidin-3-yl)sulfonyl)benzonitrile] | 10 to 100
17 | N#Cc1ccc(S(=O)(=O)[C@H]2CN(S(=O)(=O)c3ccc(C#N)cc3Cl)C[C@@]2(O)CO)cc1 [Example 45, 3-chloro-4-(((3R,4S)-4-((4-cyanophenyl)sulfonyl)-3-hydroxy-3-(hydroxymethyl)pyrrolidin-1-yl)sulfonyl)benzonitrile] | 0.1 to 10
18 | CCc1cc(C#N)ccc1S(=O)(=O)N1C[C@H](S(=O)(=O)c2ccc(Cl)cc2)[C@](O)(CO)C1 [Example 46, 4-(((3R,4S)-4-((4-chlorophenyl)sulfonyl)-3-hydroxy-3-(hydroxymethyl)pyrrolidin-1-yl)sulfonyl)-3-ethylbenzonitrile] | 10 to 100
19 | N#Cc1ccccc1S(=O)(=O)N1C[C@H](S(=O)(=O)c2ccc(Cl)cc2)[C@](O)(CO)C1 [Example 47, 2-(((3R,4S)-4-((4-chlorophenyl)sulfonyl)-3-hydroxy-3-(hydroxymethyl)pyrrolidin-1-yl)sulfonyl)benzonitrile] | 10 to 100
20 | N#Cc1ccc(S(=O)(=O)N2C[C@H](S(=O)(=O)c3ccc(Cl)cc3)[C@](O)(CO)C2)c(C(F)F)c1 [Example 48, 4-(((3R,4S)-4-((4-chlorophenyl)sulfonyl)-3-hydroxy-3-(hydroxymethyl)pyrrolidin-1-yl)sulfonyl)-3-(difluoromethyl)benzonitrile] | 0.1 to 10
21 | CCOc1cc(C#N)ccc1S(=O)(=O)N1C[C@H](S(=O)(=O)c2ccc(Cl)cc2)[C@](O)(CO)C1 [Example 49, 4-(((3R,4S)-4-((4-chlorophenyl)sulfonyl)-3-hydroxy-3-(hydroxymethyl)pyrrolidin-1-yl)sulfonyl)-3-ethoxybenzonitrile] | 10 to 100
22 | N#Cc1ccc(S(=O)(=O)N2C[C@H](S(=O)(=O)c3ccc(Cl)cc3)[C@](O)(CO)C2)c(OC2CC2)c1 [Example 50, 4-(((3R,4S)-4-((4-chlorophenyl)sulfonyl)-3-hydroxy-3-(hydroxymethyl)pyrrolidin-1-yl)sulfonyl)-3-cyclopropoxybenzonitrile] | 10 to 100
